Test results published in ChEMBL document CHEMBL3217729, “Sangamides, a new class of cyclophilin-inhibiting host-targeted antivirals for treatment of HCV infection” (Medchemcomm, 2012).
Values after ≈ are worked out from the molar mass of the structure shown. Active and inactive are the calls of the source. No cut-off for these calls is given here.

Experiments:
[1] = tested on: PBMC; experiment: Immunosuppressive activity in human PBMC isolated from two individuals assessed as inhibition of proliferation using [3H]thymidine by mixed lymphocyte reaction assay; format: cell-based
[2] = tested on: Hepatitis C virus; experiment: Antiviral activity against Hepatitis C virus genotype 2a JFH-1 infected in human Huh7 cells assessed as decrease in subgenomic RNA level after 72 hrs by RT-PCR analysis; format: functional, cell-based, Hepacivirus hominis; settings: genotype 2a JFH-1, Huh-7, 72 h
[3] = Selectivity index, ratio of CC50 for human Huh5-2 cells to EC50 for Hepatitis C virus genotype 1b I389luc-ubi-neo/NS3-3'/5.1 subgenomic replicon infected in human Huh5-2 cells; format: toxicity, cell-based, Huh-5-2; settings: read-out: Ratio CC50/EC50
[4] = target: T1, Peptidyl-prolyl cis-trans isomerase A (Homo sapiens, UniProt P62937); experiment: Inhibition of PPIase activity of recombinant CypA (unknown origin) assessed as chymotrypsin-mediated N-succinyl-Ala-Ala-Pro-Phe-p-nitroanilide hydrolysis after 1 hr by spectrophotometric analysis
[5] = Solubility of the compound in phosphate buffered saline at pH 7.4 after 4 hrs by LC-MS/MS analysis
[6] = Half life in human liver microsomes at 1 uM by LC-MS/MS analysis; format: ADME
[7] = Percentage bound in human plasma at 1 uM after 5 hrs by dialysis chamber method; format: ADME, cell-free; settings: read-out: PPB (converted)
[8] = physchem; settings: n-octanol/potassium phosphate buffer, pH 7.4
[9] = tested on: Hepatitis C virus; experiment: Antiviral activity against Hepatitis C virus genotype 1b I389luc-ubi-neo/NS3-3'/5.1 subgenomic replicon infected in human Huh5-2 cells after 4 days by luciferase assay; format: functional, cell-based, Hepacivirus hominis; settings: Huh-5-2, 96 h
[10] = in vitro; settings: mouse, liver microsomes
Description: Half life in mouse liver microsomes at 1 uM by LC-MS/MS analysis

[11] = Cytostatic activity against human Huh5-2 cells assessed as decrease in cell proliferation after 3 days by MTS method; format: ADME, cell-based, Huh-5-2
[12] = Half life in human hepatocytes at 1 uM by LC-MS/MS analysis; format: ADME, cell-based, Hepatocyte
[13] = target: T1, Peptidyl-prolyl cis-trans isomerase A; experiment: Inhibition of recombinant GST-tagged CypA (unknown origin)/HCV Con1 NS5A-His interaction after 16 hrs by ELISA
[14] = tested on: Hepatitis C virus; experiment: Antiviral activity against Hepatitis C virus genotype 1b Con1 infected in human Huh7 cells assessed as decrease in subgenomic RNA level after 72 hrs by RT-PCR analysis; format: functional, cell-based, Hepacivirus hominis; settings: genotype 1b Con1, Huh-7, 72 h
[15] = tested on: Hepatitis C virus; experiment: Antiviral activity against Hepatitis C virus genotype 1a H77 infected in human Huh7 cells assessed as decrease in subgenomic RNA level after 72 hrs by RT-PCR analysis; format: functional, cell-based, Hepacivirus hominis; settings: genotype 1a H77, Huh-7, 72 h
[16] = Ratio of drug level in liver to blood in CD-1 mouse at 5 mg/kg, po administered as single dose measured for 24 hrs post-dose by LC-MS/MS analysis; format: ADME, organism-based; design: dose 5 mg/kg, route oral; settings: liver and blood
[17] = tested on: Liver; experiment: Drug level in CD-1 mouse liver at 5 mg/kg, po administered as single dose measured per gm of tissue for 24 hrs post-dose by LC-MS/MS analysis; format: ADME, organism-based; design: dose 5 mg/kg, route oral; settings: in vivo
[18] = Drug level in CD-1 mouse blood at 5 mg/kg, po administered as single dose measured for 24 hrs post-dose by LC-MS/MS analysis; format: ADME, organism-based; design: dose 5 mg/kg, route oral; settings: read-out: Drug uptake
[19] = tested on: Hepatitis C virus; experiment: Antiviral activity against Hepatitis C virus genotype 1b Con1 infected in human Huh7 cells assessed as viral rebound by measuring replicon RNA content at 0.5 to 1 uM after drug removal by RT-qPCR analysis; format: functional, cell-based; settings: Hepacivirus hominis, Huh-7
[20] = target: T2, ATP-binding cassette sub-family C member 2 (Homo sapiens, UniProt Q92887); experiment: Inhibition of ATPase activity of MRP2 (unknown origin) expressed in membrane assessed as amount of phosphate released using probenecid as substrate up to 50 uM by molybdenum blue assay
[21] = target: ATP-dependent translocase ABCB1 (Homo sapiens, UniProt P08183); experiment: Inhibition of MDR1 (unknown origin) expressed in MDCK1 cells assessed as reduction of loperamide substrate permeability up to 50 uM after 60 mins by LC-MS/MS analysis; format: ADME, cell-based; settings: mdck1, 1 h
[22] = target: T2, ATP-binding cassette sub-family C member 2; experiment: Inhibition of ATPase activity of MRP2 (unknown origin) expressed in membrane assessed as amount of phosphate released using probenecid as substrate at 14 uM by molybdenum blue assay

T1 sequence (P62937 whole entry): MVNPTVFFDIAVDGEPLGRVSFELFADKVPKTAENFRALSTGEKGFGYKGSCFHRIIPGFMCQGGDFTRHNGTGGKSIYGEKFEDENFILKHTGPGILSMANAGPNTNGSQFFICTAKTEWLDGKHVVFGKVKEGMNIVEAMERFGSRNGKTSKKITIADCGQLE
T2 sequence (Q92887 whole entry): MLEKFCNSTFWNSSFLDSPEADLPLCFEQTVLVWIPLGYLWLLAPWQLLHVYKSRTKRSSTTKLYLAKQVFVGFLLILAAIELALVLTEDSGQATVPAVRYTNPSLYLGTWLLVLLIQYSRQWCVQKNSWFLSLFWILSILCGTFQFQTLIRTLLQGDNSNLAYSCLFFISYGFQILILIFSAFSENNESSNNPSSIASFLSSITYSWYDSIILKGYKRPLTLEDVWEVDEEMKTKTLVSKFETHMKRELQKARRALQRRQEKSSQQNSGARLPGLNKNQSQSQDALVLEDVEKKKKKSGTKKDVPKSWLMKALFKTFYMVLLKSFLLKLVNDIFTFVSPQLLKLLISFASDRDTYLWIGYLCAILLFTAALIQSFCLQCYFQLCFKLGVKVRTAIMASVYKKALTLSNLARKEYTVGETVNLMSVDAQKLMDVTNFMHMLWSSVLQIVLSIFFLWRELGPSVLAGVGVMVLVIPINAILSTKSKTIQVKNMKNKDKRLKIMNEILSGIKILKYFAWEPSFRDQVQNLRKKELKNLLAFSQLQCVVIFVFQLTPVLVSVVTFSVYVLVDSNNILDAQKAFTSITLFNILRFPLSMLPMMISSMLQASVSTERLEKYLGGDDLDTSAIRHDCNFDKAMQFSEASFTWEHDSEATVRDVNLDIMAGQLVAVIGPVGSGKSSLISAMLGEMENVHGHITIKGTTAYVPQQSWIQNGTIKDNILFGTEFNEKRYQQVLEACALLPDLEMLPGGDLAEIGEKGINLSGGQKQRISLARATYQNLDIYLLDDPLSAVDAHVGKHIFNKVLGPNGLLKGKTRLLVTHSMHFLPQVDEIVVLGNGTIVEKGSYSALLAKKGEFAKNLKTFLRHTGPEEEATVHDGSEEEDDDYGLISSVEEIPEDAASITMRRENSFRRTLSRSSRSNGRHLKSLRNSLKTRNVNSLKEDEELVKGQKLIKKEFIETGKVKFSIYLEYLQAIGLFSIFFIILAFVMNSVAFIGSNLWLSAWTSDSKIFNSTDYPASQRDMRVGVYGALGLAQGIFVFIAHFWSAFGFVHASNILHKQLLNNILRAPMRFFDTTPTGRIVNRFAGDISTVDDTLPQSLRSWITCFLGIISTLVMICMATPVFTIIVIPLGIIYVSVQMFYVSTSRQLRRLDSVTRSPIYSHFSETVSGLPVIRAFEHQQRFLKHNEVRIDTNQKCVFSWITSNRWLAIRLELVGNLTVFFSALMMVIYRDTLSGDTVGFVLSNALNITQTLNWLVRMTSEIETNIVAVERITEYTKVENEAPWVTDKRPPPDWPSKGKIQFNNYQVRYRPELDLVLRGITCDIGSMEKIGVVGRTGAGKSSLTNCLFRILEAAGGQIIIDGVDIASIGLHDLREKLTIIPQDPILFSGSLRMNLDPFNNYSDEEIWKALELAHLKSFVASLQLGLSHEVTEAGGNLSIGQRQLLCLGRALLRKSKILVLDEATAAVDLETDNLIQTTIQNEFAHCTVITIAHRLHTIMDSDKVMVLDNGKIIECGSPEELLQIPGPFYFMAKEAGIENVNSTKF
ATP-dependent translocase ABCB1, sequence (P08183 whole entry): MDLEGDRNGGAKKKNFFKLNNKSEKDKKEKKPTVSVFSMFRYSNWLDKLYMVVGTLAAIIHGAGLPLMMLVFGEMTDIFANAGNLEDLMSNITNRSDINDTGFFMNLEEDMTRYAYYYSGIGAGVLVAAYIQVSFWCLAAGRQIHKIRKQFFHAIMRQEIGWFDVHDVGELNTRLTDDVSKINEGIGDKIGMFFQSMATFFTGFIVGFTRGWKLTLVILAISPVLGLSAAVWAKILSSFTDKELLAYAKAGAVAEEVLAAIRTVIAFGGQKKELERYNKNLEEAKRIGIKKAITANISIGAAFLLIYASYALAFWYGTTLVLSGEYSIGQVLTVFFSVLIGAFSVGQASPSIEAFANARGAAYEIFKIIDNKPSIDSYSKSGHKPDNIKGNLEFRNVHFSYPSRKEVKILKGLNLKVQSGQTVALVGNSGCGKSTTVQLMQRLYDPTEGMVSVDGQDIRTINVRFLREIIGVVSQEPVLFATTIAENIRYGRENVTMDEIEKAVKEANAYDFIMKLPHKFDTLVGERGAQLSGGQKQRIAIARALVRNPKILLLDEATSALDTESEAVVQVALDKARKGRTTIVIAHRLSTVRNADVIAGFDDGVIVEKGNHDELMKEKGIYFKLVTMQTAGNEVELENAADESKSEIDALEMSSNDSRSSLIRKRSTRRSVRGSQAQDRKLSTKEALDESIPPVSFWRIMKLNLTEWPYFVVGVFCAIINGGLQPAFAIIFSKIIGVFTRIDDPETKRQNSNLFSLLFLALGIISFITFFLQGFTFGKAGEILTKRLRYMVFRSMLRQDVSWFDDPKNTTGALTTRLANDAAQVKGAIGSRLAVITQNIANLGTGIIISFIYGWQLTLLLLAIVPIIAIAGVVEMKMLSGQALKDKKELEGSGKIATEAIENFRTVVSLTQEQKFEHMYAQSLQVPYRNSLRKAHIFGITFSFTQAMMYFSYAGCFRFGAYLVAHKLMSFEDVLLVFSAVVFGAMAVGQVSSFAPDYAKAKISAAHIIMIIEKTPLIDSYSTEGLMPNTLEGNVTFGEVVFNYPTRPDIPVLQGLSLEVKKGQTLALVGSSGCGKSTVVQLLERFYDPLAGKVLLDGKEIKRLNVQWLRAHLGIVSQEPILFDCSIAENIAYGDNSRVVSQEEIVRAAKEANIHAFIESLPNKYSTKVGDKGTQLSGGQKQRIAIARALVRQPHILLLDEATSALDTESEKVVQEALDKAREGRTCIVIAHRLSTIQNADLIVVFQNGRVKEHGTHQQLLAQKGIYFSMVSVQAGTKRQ

Row | SMILES | IC50 [1] | EC50 [2] | selectivity ratio [3] | IC50 [4] | solubility at 4 h [5] | half-life at 1 µM [6] | fraction unbound at 5 h, 1 µM [7] | logD at 1 h [8] | EC50 [9] | EC90 [9] | half-life at 1 µM [10] | CC50 at 72 h [11] | half-life at 1 µM [12] | IC50 [13] | EC50 [14] | EC50 [15] | also measured
1 | C/C=C/C[C@@H](C)[C@@H](O)[C@H]1C(=O)N[C@@H](CC)C(=O)N(C)[C@H](C)C(=O)N(CC)[C@@H](C(C)C)C(=O)N[C@@H](C(C)C)C(=O)N(C)[C@@H](CC(C)C)C(=O)N[C@@H](C)C(=O)N[C@H](C)C(=O)N(C)[C@@H](CC(C)C)C(=O)N(C)[C@@H](CC(C)C)C(=O)N(C)[C@@H](C(C)C)C(=O)N1C [ALISPORIVIR] | 840 nM |  |  |  |  |  |  |  |  |  |  |  |  |  |  |  | 
2 | CON(C)C(=O)/C=C/C=C(\C)[C@@H]1C/C=C/C=C/[C@H](O)[C@H](C)[C@@H](O)[C@@H](CCC(C)=O)C(=O)N[C@@H](C(C)C)C(=O)N[C@@H](Cc2cccc(O)c2)C(=O)N2CCCC(N2)C(=O)O1 (some centres not stated) | 1060 nM | 247 nM | > 617 | 1.1 nM | > 100 µM | 26.5 min | 0.73 | 2.3 | 162 nM | 920 nM | 17.5 min | > 100000 nM | > 240 min | 200 nM | 128 nM | 156 nM | 
3 | CC(=O)CC[C@H]1C(=O)N[C@@H](C(C)C)C(=O)N[C@@H](Cc2cccc(O)c2)C(=O)N2CCCC(N2)C(=O)O[C@H](/C(C)=C/C=C/C(=O)Nc2ccccn2)C/C=C/C=C/[C@H](O)[C@H](C)[C@H]1O (stereo in doubt) |  |  | 240 | 4.1 nM | 61 µM (≈ 52.3 µg/mL) | 4.4 min |  |  | 167 nM | 740 nM | 8.8 min | 40000 nM | 95 min | 390 nM |  |  | 
4 | CC[C@H]1C[C@H](C)[C@@]2(NC1=O)O[C@@H](C[C@H](O)[C@@H](C)CC/C=C/C=C(\C)[C@@H]1C/C=C/C=C/[C@H](O)[C@H](C)[C@@H](O)[C@@H](CCC(C)=O)C(=O)N[C@@H](C(C)C)C(=O)N[C@@H](Cc3cccc(O)c3)C(=O)N3CCCC(N3)C(=O)O1)[C@H](C)[C@H](O)[C@@H]2C (some centres not stated) | 215 nM | 247 nM |  |  | 45 µM (≈ 49.1 µg/mL) | 7.9 min | < 0.01 | > 3.7 | 318 nM | 5500 nM | 4 min | 9100 nM | 145 min |  | 222 nM | 301 nM | 
5 | CC(=O)CC[C@H]1C(=O)N[C@@H](C(C)C)C(=O)N[C@@H](Cc2cccc(O)c2)C(=O)N2CCCC(N2)C(=O)O[C@H](/C(C)=C/C=C/C(=O)N2CCCCO2)C/C=C/C=C/[C@H](O)[C@H](C)[C@H]1O (some centres not stated) | 1450 nM | 89 nM | > 800 | 2.7 nM | > 100 µM | 10.6 min |  | 2.6 | 125 nM | 690 nM | 5.8 min | > 100000 nM | 220 min | 360 nM | 58 nM | 63 nM | Kp at 24 h [16]: 3; Drug uptake [17]: 20 ng; concentration at 24 h [18]: 20 ng/mL; Activity [19]: Active; inhibition (INH) [20]: Not Active; inhibition (INH) [21]: Not Active
6 | CCc1oc2ccccc2c1C(=O)c1cc(Br)c(O)c(Br)c1 [BENZBROMARONE] |  |  |  |  |  |  |  |  |  |  |  |  |  |  |  |  | inhibition (INH) [22]: Active
